GI50 and TGI data for nine compounds are collected here from PubChem BioAssay (NCI).

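How tested: cells in 96-well plates exposed to compound for 48 hours at five concentrations. At the GI50, growth is halved. TGI: concentration producing complete growth inhibition.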

Common to all, as to assay: inhibition of tumour cell growth, NCI panel, 48 h
Assay [1] relates to HL-60(TB) leukemia.
Assay [2] relates to HS 578T breast.
Assay [3] has as its system LOX IMVI melanoma.
Assay [4] has as its system MDA-MB-435.
For assay [5], the system named is MOLT-4 leukemia.
Assay [6] relates to NCI-H460 lung.
Assay [7] relates to OVCAR-4 ovarian.
Assay [8] concerns SF-295 CNS.
In assay [9] the test system is SW-620 colon.
Assay [10] concerns UACC-257 melanoma.

For `CCOc1ccc(-n2cc(-c3ccc(N(C)C)cc3)[n+]3c2CCCCC3)cc1`, the GI50 was 0.164 µM in [1]; 3.33 µM in [2]; 0.359 µM in assay [3]; 0.217 µM in assay [4]; 1 µM in assay [5]; 0.349 µM in assay [6]. The GI50 in assay [7] is 0.103 µM; in assay [8], 0.618 µM; in assay [9] it was 2.21 µM; in assay [10] it was 0.12 µM. Besides, the TGI was 1.53 µM in [1]; greater than 100 µM in assay [2]; greater than 65.6 µM in assay [3]; 14.4 µM in [4]; 26.5 µM in assay [5]; greater than 38 µM in assay [6]. Further, the TGI in assay [7] is greater than 100 µM; in assay [8], 5.43 µM; in assay [9], greater than 100 µM; in [10], 2.44 µM.

`O=C1/C=C/[C@@H](O)[C@@H]2C[C@@H](O)C[C@H]2/C=C/CCCCO1`: the GI50 in assay [1] was 1.61 µM; in assay [2], 0.282 µM; in [3] it was 0.223 µM; in assay [4], 0.338 µM; in assay [5] it was 1.4 µM; in assay [6], 1.77 µM. The GI50 in [7] is 0.47 µM; in assay [8] it was 0.774 µM; in [9], 0.247 µM; in [10], 0.545 µM. Further, the TGI was greater than 100 µM in assay [2]; 0.539 µM in assay [3]; greater than 26.8 µM in [4]; greater than 100 µM in [6]; greater than 100 µM in assay [7]; greater than 100 µM in [8]. The TGI is 0.752 µM in assay [9] and greater than 100 µM in [10].

Consider `c1ccc(Oc2cnc3ccccc3n2)cc1`, for which the GI50 in assay [1] is 18.7 µM; in assay [2] it was 30.3 µM; in assay [3], greater than 100 µM; in assay [4], greater than 100 µM; in assay [5] it was 36.3 µM; in [6], greater than 100 µM. Besides, the GI50 in [7] is greater than 100 µM; in assay [8], 36.4 µM; in assay [9] it was greater than 100 µM; in [10], greater than 100 µM. Also, the TGI in assay [1], in [2], in assay [3], in assay [4], in assay [5] and in assay [6] was greater than 100 µM throughout. For the same compound, the TGI in [7], in assay [8], in [9] and in assay [10] was greater than 100 µM each time.

On to `COc1ccccc1NC(=O)C(=O)C(C#N)CC(C)(C)C=O` (stereo not drawn), for which the TGI in assay [1], in assay [2], in assay [3], in assay [4], in [5] and in [6] was greater than 100 µM throughout. Besides, the TGI in [7], in assay [8], in [9] and in assay [10] was greater than 100 µM throughout.

Turning to `COc1cc(Nc2nccc(-c3cnn4ncccc34)n2)cc(OC)c1`, the GI50 in [1] is 0.0362 µM; in assay [2] it was 0.096 µM; in assay [3], 0.0539 µM; in [4], 0.07 µM; in [5] it was 0.0516 µM; in [6], 0.0539 µM. Moreover, the GI50 in assay [7] is 0.268 µM; in assay [8], 0.0572 µM; in [9], 0.0758 µM; in assay [10], 0.0844 µM. Moreover, the TGI is 0.12 µM in assay [1]; greater than 5.62 µM in assay [2]; greater than 9.54 µM in assay [3]; 0.859 µM in assay [4]; 0.165 µM in [5]; 2.93 µM in assay [6]. Besides, the TGI turned out to be 1.35 µM in assay [7], 0.721 µM in assay [8], 4.78 µM in assay [9] and 0.48 µM in assay [10].

`O=P1(NCCCl)OCCC(OO)N1CCCl` (stereo not drawn): the TGI is greater than 51.9 µM in assay [1]; greater than 100 µM in assay [2]; 37.5 µM in assay [3]; greater than 100 µM in assay [4]; greater than 83.4 µM in [5]; greater than 100 µM in assay [6]. For the same compound, the TGI in [7] is 39.1 µM; in assay [8] it was greater than 100 µM; in assay [9], 30.5 µM; in assay [10], greater than 82.6 µM.

With `Nc1nc(N)c(N=Nc2ccc([As](=O)(O)O)c(O)c2)c(N)n1`, the TGI is 13.2 µM in assay [1]; greater than 77.3 µM in assay [2]; greater than 100 µM in assay [3]; 6.37 µM in assay [4]; greater than 48.3 µM in assay [5]; greater than 28.1 µM in assay [6]. Moreover, the TGI in assay [7], in assay [8], in [9] and in assay [10] was greater than 100 µM in each case.

Consider `O=C(/C=C/c1ccco1)c1cccc(Nc2nc(Nc3ccccc3)nc(Nc3ccccc3)n2)c1`, for which the GI50 was greater than 29.6 µM in assay [1]; 12.6 µM in assay [2]; 17.9 µM in assay [3]; 37.7 µM in [4]; 4.34 µM in assay [5]; 1.4 µM in assay [6]. For the same compound, the GI50 was 10.6 µM in assay [7], 2.94 µM in assay [8], 18.2 µM in [9] and greater than 44.7 µM in assay [10]. In addition, the TGI in assay [1] is greater than 54.3 µM; in assay [2], greater than 82.7 µM; in assay [3] it was greater than 100 µM; in assay [4], greater than 100 µM; in assay [5], greater than 31.8 µM; in [6], greater than 27.1 µM. The TGI in [7] is greater than 100 µM; in assay [8] it was greater than 25.3 µM; in [9], greater than 100 µM; in assay [10] it was greater than 83.8 µM.

Take `O=C1COCCN1c1ccc(NCc2cn(Cc3ccc(F)cc3)c3ccccc23)cc1`: the GI50 was 4.8 µM in assay [1]; 3.41 µM in [2]; 5.32 µM in [3]; 14.5 µM in assay [4]; 11.6 µM in assay [5]; 0.133 µM in [6]. The GI50 is 0.173 µM in [7], 0.927 µM in assay [8], 0.562 µM in assay [9] and 0.204 µM in assay [10]. The TGI in assay [1] is 24.3 µM; in assay [2] it was 44.1 µM; in assay [3], 25.3 µM; in [4], 32.1 µM; in [5] it was greater than 68.9 µM; in assay [6] it was 29.2 µM. For the same compound, the TGI in assay [7] was 3 µM; in [8], 27.5 µM; in assay [9], greater than 52.6 µM; in assay [10], 0.844 µM.
